The values below come from US8426604B2 (Janssen Pharmaceutica NV, priority 2010, dated 2013).

The target in this assay is T1, ERR1 (also known as ERR-α or ERR-1) (Homo sapiens, UniProt P11474).
T1 sequence (P11474 193-421 limits assumed): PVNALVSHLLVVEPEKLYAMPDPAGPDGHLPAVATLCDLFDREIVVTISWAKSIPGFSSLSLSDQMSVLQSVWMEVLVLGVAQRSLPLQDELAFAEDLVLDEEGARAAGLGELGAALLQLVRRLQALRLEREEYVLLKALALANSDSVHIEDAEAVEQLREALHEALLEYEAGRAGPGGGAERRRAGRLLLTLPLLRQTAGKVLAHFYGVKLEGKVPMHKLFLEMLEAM
Description: TR-FRET assay (disruption of co-activator peptide binding). The assay is classed as biochemical. Particulars: 6His-tagged ERR1LBD, GST-hSRC2 co-activator peptide; average of 3 independent experiments. As to the method: Time-Resolved Fluorescence Resonance Energy Transfer (TR-FRET) experiments were performed to examine the functional response of ERR1 (also known as ERR-α or ERR-1) ligands. The TR-FRET assay described herein relied on the conformation of ERR1 for binding to a co-activator peptide: when a test compound binds to ERR1 and alters its conformation, it can disrupt the binding of the co-activator peptide. The components of this homogeneous secondary assay included: the ^6His-tagged-ERR1LBD, a GST-labeled-hSRC2 co-activator polypeptide and a fluorescent donor/acceptor pair from CIS bio international htrf/bioassays (Bedford, Mass.) using both an α-GST Europium Cryptate (Eu) label and an α^6His-XL665 (allophycocyanin) fluorophore.
For TR-FRET measurements, the reaction was buffered in 25 mM Tris pH 8, 2.5 mM Hepes, 20 mM KCl, 1 mM DTT, and 0.05 mg/mL BSA (-lipids). The final concentrations of reagents were 6 nM of ERR1LBD, 6 nM GST-SRC-2 peptide, 30 nM Eu cryptate, and 7.5 nM XL665. Reactions were allowed to reach equilibrium at 25° C. for 4-18 hours before collecting data on the Analyst from LJL Biosystems (Molecular Devices Sunnyvale, Calif.). As a time-resolved method, the samples were excited at […] and emission was collected for 1 ms at both 615 and 665 nm with delays of 400 and 75 μs, respectively. Dose response curves were fitted using a hyperbolic equation and the data reported is the average of 3 independent experiments.
In general terms: TR-FRET usually uses a lanthanide donor and a delayed reading to cut background.
The term EC50 denotes the concentration that produces a half-maximal response. Compound `CN(C1=NC(=O)/C(=C/c2ccc3c(cnn3Cc3ccc(Cl)cc3C(F)(F)F)c2)S1)[C@H]1CCNC[C@H]1F` [Compound 54, 5-({1-[4-Chloro-2-(trifluoromethyl)benzyl]-1H-indazol-5-yl}methylidene)-2-{[(3R,4S)-3-fluoropiperidin-4-yl](methyl)amino}-1,3-thiazol-4(5H)-one] registered an EC50 of 21 nM.

`CN(C1=NC(=O)/C(=C/c2ccc3c(cnn3Cc3ccc(Cl)cc3C(F)(F)F)c2)S1)[C@H]1CCN(CC(N)=O)C[C@H]1F` [Compound 55, 2-[(3R,4S)-4-{[-5-({1-[4-Chloro-2-(trifluoromethyl)benzyl]-1H-indazol-5-yl}methylidene)-4-oxo-4,5-dihydro-1,3-thiazol-2-yl](methyl)amino}-3-fluoropiperidin-1-yl]acetamide] returned a half-maximal effective concentration (EC50) of 13 nM.

Compound `CN(C1=NC(=O)/C(=C/c2ccc3c(cnn3Cc3ccc(C(F)(F)F)cc3C(F)(F)F)c2)S1)[C@@H]1CCN(CC(N)=O)C1` [Compound 56, 2-[(3R)-3-{[5-({1-[2,4-Bis(trifluoromethyl)benzyl]-1H-indazol-5-yl}methylidene)-4-oxo-4,5-dihydro-1,3-thiazol-2-yl](methyl)amino}pyrrolidin-1-yl]acetamide] gave an EC50 of 15 nM.

As for `CN(C1=NC(=O)/C(=C/c2ccc3c(cnn3Cc3ccc(Cl)cc3C(F)(F)F)c2)S1)[C@@H]1CCN(CC(N)=O)C1` [Compound 57, 2-[(3R)-3-({5-[1-(4-Chloro-2-trifluoromethyl-benzyl)-1H-indazol-5-ylmethylene]-4-oxo-4,5-dihydro-thiazol-2-yl}-methyl-amino)-pyrrolidin-1-yl]-acetamide], the EC50 was found to be 15 nM.

In turn, `CN(CC(=O)O)C1=NC(=O)/C(=C/c2ccc3c(cnn3Cc3ccc(C(F)(F)F)cc3C(F)(F)F)c2)S1` [Compound 58, ({5-[1-(2,4-Bis-trifluoromethyl-benzyl)-1H-indazol-5-ylmethylene]-4-oxo-4,5-dihydro-thiazol-2-yl}-methyl-amino)-acetic acid] displayed a concentration for a half-maximal effect (EC50) of 38 nM.

Turning to `CN(C1=NC(=O)/C(=C/c2ccc3c(cnn3Cc3ccc(C(F)(F)F)cc3C(F)(F)F)c2)S1)[C@H]1C[C@@H](CO)N(CC(N)=O)C1` [Compound 59, 2-[4-({5-[1-(2,4-Bis-trifluoromethyl-benzyl)-1H-indazol-5-ylmethylene]-4-oxo-4,5-dihydro-thiazol-2-yl}-methyl-amino)-2-hydroxymethyl-pyrrolidin-1-yl]-acetamide], the concentration for a half-maximal effect (EC50) was 27 nM.

`CONC(=O)[C@H]1C[C@H](N(C)C2=NC(=O)/C(=C/c3ccc4c(cnn4Cc4ccc(Cl)cc4C(F)(F)F)c3)S2)CN1` [Compound 60, 4-({5-[1-(4-Chloro-2-trifluoromethyl-benzyl)-1H-indazol-5-ylmethylene]-4-oxo-4,5-dihydro-thiazol-2-yl}-methyl-amino)-pyrrolidine-2-carboxylic acid methoxy-amide] returned a concentration giving a half-maximal response (EC50) of 25 nM.

For `CN(CC(=O)O)C1=NC(=O)/C(=C/c2ccc3c(cnn3Cc3ccc(C(C)(C)O)cc3C(F)(F)F)c2)S1` [Compound 61, [(5-{1-[4-(1-Hydroxy-1-methyl-ethyl)-2-trifluoromethyl-benzyl]-1H-indazol-5-ylmethylene}-4-oxo-4,5-dihydro-thiazol-2-yl)-methyl-amino]-acetic acid], the concentration for a half-maximal effect (EC50) is 1200 nM.

In the case of `CN(CC(=O)O)C1=NC(=O)/C(=C/c2ccc3c(cnn3Cc3ccc(O)cc3C(F)(F)F)c2)S1` [Compound 62, ({5-[1-(4-Hydroxy-2-trifluoromethyl-benzyl)-1H-indazol-5-ylmethylene]-4-oxo-4,5-dihydro-thiazol-2-yl}-methyl-amino)-acetic acid], the 50% effective concentration (EC50) stood at 17 nM.
